Source: the NIST ThermoML archive (doi:10.1016/j.fluid.2006.06.022)
Numbers after ± are expanded uncertainties.

Conditions: Liquid, Ebulliometric method (Recirculating still)

Row | vapor or sublimation pressure (313.15 K) | vapor or sublimation pressure (323.15 K) | vapor or sublimation pressure (333.15 K) | vapor or sublimation pressure (343.15 K) | vapor or sublimation pressure (353.15 K) | vapor or sublimation pressure (363.15 K) | Compound
1 | 1374 ± 6 kPa | 1712 ± 8 kPa | 2115 ± 9 kPa | 2586 ± 11 kPa | 3151 ± 14 kPa | 3767 ± 16 kPa | CCC [propane]
2 | 1831 ± 9 kPa | 2307 ± 10 kPa | 2874 ± 13 kPa | – | – | – | CC(F)(F)F [1,1,1-trifluoroethane]
